# Measured values from patent publication US20170020909A1, “METHODS OF TREATING GLAUCOMA USING AMP-ACTIVATED PROTEIN KINASE (AMPK) ACTIVATORS” (Massachusetts Eye and Ear Infirmary, priority 2014, published 2017).
# How the values were obtained:
# AMPKα = assay: Time course immunoblot of p-AMPKα (Thr172)/total AMPKα in primary human TM cell lysates; assay type: cell-based; details: 0.5 mM AICAR, human TM cells
# Experimental: Primary human trabecular meshwork (TM) cells were isolated, in accordance with the Declaration of Helsinki, and maintained in culture as described previously.^63 Independent primary human TM cell lines were generated from donors ranging in age from 35 to 72 years and no known history of ocular disease. Cell cultures were maintained, unless otherwise stated, in Dulbecco's modified eagle medium (Life Technologies, Grand Island, N.Y.) containing 20% fetal bovine serum, 1% L-glutamine (2 mM), and gentamicin (0.1 mg/ml) at 37° C. in a 10% CO2 atmosphere. Only TM cells from third through fifth passage were used. All experiments were performed using at least three different primary human TM cell lines.
# At the conclusion of each experiment for matricellular and ECM protein detection, conditioned media (CM) from TM cell cultures was harvested and centrifuged at 5000 rpm for 10 minutes at 4° C. The supernatant was then concentrated (Amicon Ultra-4 Filter Unit, 10 kDa; Millipore, Milford, Mass.), and protein content quantified using the DC Protein Assay kit adhering to manufacturer's protocols (Bio-Rad, Hercules, Calif.). For AMPK protein detection, cells were lysed for 3 minutes on ice with cold 1×RIPA buffer containing 0.5% Aprotinin, 0.1% EDTA, 1% EGTA, 0.5% PMSF, and 0.01% Leupeptin. Samples were then centrifuged at 14,000 rpm for 15 minutes at 4° C. and protein content quantified. In all experiments, equal amounts of protein were treated with 6× reducing buffer and boiled for 5 minutes. Samples were then electrophoresed in 10% SDS-polyacrylamide gels, alongside a pre-stained protein marker (Cell Signaling Technology Inc., Danvers, Ma). For conditioned media loading control, the resultant gels were stained with 0.1% Coomassie Brilliant Blue G-250 (Bio-Rad, Hercules Calif.) for 3 hours and were destained with fixing/destaining solution until clear bands were visible and contrasted well with the true blue background. Otherwise, proteins were transferred to nitrocellulose membranes (0.45-μm pore size; Invitrogen). […] The membranes were then washed three times with 1×TBS-T, scanned, and integrated band intensities were calculated using an infrared imaging system (Odyssey; Li-Cor, Lincoln, Nebr.). […]
# [1] = tested on: perfused ex vivo human anterior segments; assay: IOP in constant-flow-perfused ex vivo human anterior segments; details: 2.5 μL of 200 mM AICAR in 1 mL of ex vivo media, by day 7, mean±SEM, n=3
# Excerpt: The effects of AICAR on IOP in perfused constant flow ex vivo human anterior segments was examined using well-established and validated methods (see, e.g., Oh et al., Invest. Ophthalmol. Vis. Sci. 2013; 54:3309-19; Ethier et al., Invest. Ophthalmol. Vis. Sci. 2004; 45:1863-70). Briefly, all donor pairs of eyes were obtained from National Disease Research Interchange (NDRI, Philadelphia, Pa.) according to the provisions of the Declaration of Helsinki for research involving human tissue. Eyes were obtained within 24 hours after death. No donors were known to have a history of glaucoma or other ocular disorder. Human perfused anterior segment cultures were prepared by scoring the surface of the eye around ora serrata with a surgical blade, and the full-thickness incision was completed around the eye with scissors. The vitreous, lens, and iris were removed. […] IOP was monitored with a pressure transducer (Argon Medical Devices, Athens, Tex.) and were recorded with an automated computerized system (National Instruments, Austin, Tex.) every second and averaged each hour. […] Effects of AICAR treatment on IOP are expressed as the percentage change in IOP (compared to baseline). Values are expressed as mean±SEM, and paired two-tailed student t-tests are applied to determine significance of difference in IOP between control and experimental groups at selected time intervals. […]
compound,measurement,setting,value
"NC(=O)c1ncn([C@@H]2O[C@H](CO)[C@@H](O)[C@H]2O)c1N [AICAR, 5-Aminoimidazole-4-carboxamide riboside]",peak increase of phospho-total AMPK ratio,AMPKα; at 2 hours,greater than 2 fold
same,"increase of phospho-total AMPK ratio, normalized to the zero time point",AMPKα; within 1 hour,77%
same,mean decrease in IOP compared with paired opposite eye controls,[1],18.54±1.78%
